How the values were obtained:
[1] = system: Mus musculus; test: Inhibition of capsaicin-induced hypothermia in NMRI mouse compound administered orally 15 mins prior challenge measured 30 mins post challenge; format: functional, organism-based
[2] = system: Mus musculus; test: Inhibition of capsaicin-induced hypothermia in NMRI mouse compound at 0.3 mg/kg, po administered 15 mins prior challenge measured 30 mins post challenge; format: functional
[3] = target: T1, Transient receptor potential cation channel subfamily V member 1 (Homo sapiens, UniProt Q8NER1); test: Antagonist activity at human TRPV1 expressed in CHO cells assessed as inhibition of N-arachidonoyl dopamine-induced increase in intracellular Ca2+ level by FLIPR assay; format: cell-based
T1 sequence (Q8NER1 whole entry): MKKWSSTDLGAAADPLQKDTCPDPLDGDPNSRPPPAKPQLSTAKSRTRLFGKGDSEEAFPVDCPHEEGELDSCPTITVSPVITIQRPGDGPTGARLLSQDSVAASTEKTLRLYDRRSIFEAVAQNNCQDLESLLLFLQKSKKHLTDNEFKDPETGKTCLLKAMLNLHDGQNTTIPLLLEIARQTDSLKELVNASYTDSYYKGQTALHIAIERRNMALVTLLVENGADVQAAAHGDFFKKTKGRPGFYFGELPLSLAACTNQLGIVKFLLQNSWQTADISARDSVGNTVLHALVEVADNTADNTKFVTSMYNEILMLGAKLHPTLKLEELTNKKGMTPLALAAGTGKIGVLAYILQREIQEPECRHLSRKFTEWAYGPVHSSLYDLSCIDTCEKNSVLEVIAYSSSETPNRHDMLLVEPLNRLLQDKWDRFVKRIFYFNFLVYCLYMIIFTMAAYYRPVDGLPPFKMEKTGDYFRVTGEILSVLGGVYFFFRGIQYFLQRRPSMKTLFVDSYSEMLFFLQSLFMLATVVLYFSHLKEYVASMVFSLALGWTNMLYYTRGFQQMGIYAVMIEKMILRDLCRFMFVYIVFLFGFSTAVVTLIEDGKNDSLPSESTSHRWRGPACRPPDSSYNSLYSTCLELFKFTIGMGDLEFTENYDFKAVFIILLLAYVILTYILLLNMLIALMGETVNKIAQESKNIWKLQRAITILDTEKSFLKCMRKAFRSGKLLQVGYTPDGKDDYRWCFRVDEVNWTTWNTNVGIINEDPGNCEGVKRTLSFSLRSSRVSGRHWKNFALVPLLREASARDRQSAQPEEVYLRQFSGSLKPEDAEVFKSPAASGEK

[4] = target: T1, Transient receptor potential cation channel subfamily V member 1; test: Antagonist activity at human TRPV1 expressed in CHO cells assessed as inhibition of heat-induced increase in intracellular Ca2+ level by FLIPR assay; format: cell-based
[5] = system: Rattus norvegicus; test: Analgesic activity in orally dosed rat Bennett model for neuropathic pain; format: functional, organism-based
[6] = system: Rattus norvegicus; test: Analgesic activity in rat Bennett model for neuropathic pain at 0.1 mg/kg, po; format: functional
[7] = system: Mus musculus; test: Inhibition of capsaicin-induced hypothermia in NMRI mouse compound at 0.1 mg/kg, po administered 15 mins prior challenge measured 30 mins post challenge; format: functional
[8] = system: Rattus norvegicus; test: Analgesic activity in rat Bennett model for neuropathic pain at 1 mg/kg, po; format: functional
[9] = target: T1, Transient receptor potential cation channel subfamily V member 1; test: Antagonist activity at human TRPV1 expressed in CHO cells assessed as inhibition of capsaicin-induced increase in intracellular Ca2+ level by FLIPR assay; format: cell-based
[10] = system: Rattus norvegicus; test: Analgesic activity in rat Bennett model for neuropathic pain […]; format: functional

## CC(C(=O)NCc1ccc(C(F)(F)F)nc1C1CCCCC1)c1ccc(NS(C)(=O)=O)c(F)c1 (stereo not drawn)
[1]
  inhibition: Dose-dependent effect
[2]
  inhibition in vivo at 0.3 mg/kg: 78%
[3]
  Ki: 0.2 nM
[4]
  IC50: 14.1 nM
[5]
  Activity: Dose-dependent effect
[6]
  %max: 25%
[7]
  inhibition in vivo at 0.1 mg/kg: 24%
[8]
  %max: 53%

## CC(C(=O)NCc1ccc(C(F)(F)F)nc1C1CCC(F)(F)CC1)c1ccc(NS(C)(=O)=O)c(F)c1 (stereo not drawn)
[9]
  Ki: 1.5 nM

## C[C@H](C(=O)NCc1ccc(C(F)(F)F)nc1C1CCCCC1)c1ccc(NS(C)(=O)=O)c(F)c1
[9]
  Ki: 0.3 nM

## CC1C=C(c2nc(C(F)(F)F)ccc2CNC(=O)C(C)c2ccc(NS(C)(=O)=O)c(F)c2)CCC1 (stereo not drawn)
[9]
  Ki: 0.2 nM

## C[C@H](C(=O)NCc1ccc(C(F)(F)F)nc1C1=CCC(C)(C)CC1)c1ccc(NS(C)(=O)=O)c(F)c1
[9]
  Ki: 0.1 nM

## CC1CC=C(c2nc(C(F)(F)F)ccc2CNC(=O)[C@@H](C)c2ccc(NS(C)(=O)=O)c(F)c2)CC1 (stereo partly drawn)
[9]
  Ki: 0.2 nM

## CCCc1nc(C(F)(F)F)ccc1CNC(=O)C(C)c1ccc(NS(C)(=O)=O)c(F)c1 (stereo not drawn)
[9]
  Ki: 22.7 nM

## CC(C)C[C@H](CN)CC(=O)O [PREGABALIN]
[10]
  ED50: 42.2 mg/kg

## C[C@H](C(=O)NCc1ccc(C(F)(F)F)nc1C1CCC(C)(C)CC1)c1ccc(NS(C)(=O)=O)c(F)c1
[9]
  Ki: 0.3 nM

## CCC1CCC(c2nc(C(F)(F)F)ccc2CNC(=O)[C@@H](C)c2ccc(NS(C)(=O)=O)c(F)c2)CC1 (stereo partly drawn)
[9]
  Ki: 0.2 nM

## CC(C(=O)NCc1ccc(C(F)(F)F)nc1C1CCC(C)(C)CC1)c1ccc(NS(C)(=O)=O)c(F)c1 (racemic)
[9]
  Ki: 0.4 nM

## CC(C(=O)NCc1ccc(C(F)(F)F)nc1[C@H]1CC[C@H](C(C)(C)C)CC1)c1ccc(NS(C)(=O)=O)c(F)c1 (stereo partly drawn)
[9]
  Ki: 0.3 nM

## CCC1CCC(c2nc(C(F)(F)F)ccc2CNC(=O)C(C)c2ccc(NS(C)(=O)=O)c(F)c2)CC1 (racemic)
[9]
  Ki: 0.3 nM

## CC(C(=O)NCc1ccc(C(F)(F)F)nc1C1=CCC(C(C)(C)C)CC1)c1ccc(NS(C)(=O)=O)c(F)c1 (racemic)
[9]
  Ki: 0.2 nM

## C[C@H](C(=O)NCc1ccc(C(F)(F)F)nc1C1=CCC(C(C)(C)C)CC1)c1ccc(NS(C)(=O)=O)c(F)c1 (stereo partly drawn)
[9]
  Ki: 0.1 nM

## CC(C(=O)NCc1ccc(C(F)(F)F)nc1C1CC2CCC1C2)c1ccc(NS(C)(=O)=O)c(F)c1 (racemic)
[9]
  Ki: 1.5 nM

## C[C@H](C(=O)NCc1ccc(C(F)(F)F)nc1C1CC2CCC1C2)c1ccc(NS(C)(=O)=O)c(F)c1 (stereo partly drawn)
[9]
  Ki: 0.8 nM

## CC(C(=O)NCc1ccc(C(F)(F)F)nc1[C@H]1CC[C@@H](C(C)(C)C)CC1)c1ccc(NS(C)(=O)=O)c(F)c1 (stereo partly drawn)
[9]
  Ki: 1.3 nM

## CC(C(=O)NCc1ccc(C(F)(F)F)nc1C1=CCC(C)(C)CC1)c1ccc(NS(C)(=O)=O)c(F)c1 (racemic)
[9]
  Ki: 0.2 nM

## CC1CCC(c2nc(C(F)(F)F)ccc2CNC(=O)C(C)c2ccc(NS(C)(=O)=O)c(F)c2)CC1 (stereo not drawn)
[9]
  Ki: 0.4 nM

## CC(C(=O)NCc1ccc(C(F)(F)F)nc1C1CCC(C(C)(C)C)CC1)c1ccc(NS(C)(=O)=O)c(F)c1 (stereo not drawn)
[9]
  Ki: 0.3 nM

— ChEMBL document CHEMBL3351466 (Bioorg Med Chem Lett, 2014)
